Where “and” joins values, the source holds several entries; their conditions need not be identical. Identical values can stand only once. Toxic doses and inconclusive results are not listed.

This assay concerns CD2F1 mice, L1210 leukemia ip, survival T/C. Briefly: NCI In Vivo Anticancer Drug Screen. Data for tumor model L1210 Leukemia (intraperitoneal) in CD2F1 (CDF1) mice. To be noted: higher = longer survival. The method in brief: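 Vehicle-treated tumor-bearing mice served as controls (C) for compound-treated mice (T). Reported figure is T divided by C.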
The mark [1] stands for this setting: endpoint: mean survival time, dose: 100.0 mg/kg/injection, schedule: Q04DX002 (ip), vehicle: saline with Tween-80.
Where [2] appears, read: endpoint: mean survival time, dose: 400.0 mg/kg/injection, schedule: Q04DX002 (ip), vehicle: saline with Tween-80.
[3] abbreviates: endpoint: mean survival time, dose: 100.0 mg/kg/injection, schedule: Q04DX003 (ip), vehicle: saline with Tween-80.
[4] abbreviates: endpoint: mean survival time, dose: 200.0 mg/kg/injection, schedule: Q04DX003 (ip), vehicle: saline with Tween-80.
[5] abbreviates: endpoint: mean survival time, dose: 400.0 mg/kg/injection, schedule: Q04DX003 (ip), vehicle: saline with Tween-80.
[6] abbreviates: endpoint: mean survival time, dose: 100.0 mg/kg/injection, schedule: Q01DX009 (ip), vehicle: saline with Tween-80.
Where [7] appears, read: endpoint: mean survival time, dose: 200.0 mg/kg/injection, schedule: Q01DX009 (ip), vehicle: saline with Tween-80.
[8] abbreviates: endpoint: mean survival time, dose: 400.0 mg/kg/injection, schedule: Q01DX009 (ip), vehicle: saline with Tween-80.
[9] abbreviates: endpoint: mean survival time, dose: 100.0 mg/kg/injection, schedule: Q04DX003 (ip), vehicle: Klucel (hydroxypropylcellulose) (HPC).
Where [10] appears, read: endpoint: mean survival time, dose: 200.0 mg/kg/injection, schedule: Q04DX003 (ip), vehicle: Klucel (hydroxypropylcellulose) (HPC).
Setting [11] is: endpoint: mean survival time, dose: 400.0 mg/kg/injection, schedule: Q04DX003 (ip), vehicle: Klucel (hydroxypropylcellulose) (HPC).

As to `[I][Pt][I].c1ccc([PH+](c2ccccc2)c2ccccc2)cc1.c1ccc([PH+](c2ccccc2)c2ccccc2)cc1`, the T/C is, setting by setting: (endpoint: mean survival time, dose: 6.25 mg/kg/injection, schedule: Q04DX002 (ip), vehicle: saline with Tween-80) 104 % of control; (endpoint: mean survival time, dose: 12.5 mg/kg/injection, schedule: Q04DX002 (ip), vehicle: saline with Tween-80) 93 % of control; (endpoint: mean survival time, dose: 25.0 mg/kg/injection, schedule: Q04DX002 (ip), vehicle: saline with Tween-80) 96 % of control; under setting [1], 87 % of control; under setting [2], 91 % of control.

Consider `O=S(=O)(O)C(I)S(=O)(=O)O`, for which the T/C is, setting by setting: (endpoint: mean survival time, dose: 100.0 mg/kg/injection, schedule: Q01DX001 (ip), vehicle: saline) 97 % of control; (endpoint: mean survival time, dose: 200.0 mg/kg/injection, schedule: Q01DX001 (ip), vehicle: saline) 102 % of control; (endpoint: mean survival time, dose: 400.0 mg/kg/injection, schedule: Q01DX001 (ip), vehicle: saline) 114 % of control.

On to `CN(C)S(=O)(=O)Oc1cccc(N)c1`, for which the T/C was 92 % of control under setting [3] and 87 % of control under setting [4].

As to `CNc1c(Cl)c(Cl)c(Br)c(Cl)c1Cl`, the T/C is, setting by setting: under setting [3], 100 % of control; under setting [4], 95 % of control; under setting [5], 101 % of control.

As to `S=C1NC(c2ccccc2)NC(c2ccccc2)S1` (stereo unspecified), the T/C is 86 % of control (endpoint: mean survival time, dose: 12.0 mg/kg/injection, schedule: Q04DX003 (ip), vehicle: other); 97 % of control (endpoint: mean survival time, dose: 25.0 mg/kg/injection, schedule: Q04DX003 (ip), vehicle: other); 90 % of control (endpoint: mean survival time, dose: 50.0 mg/kg/injection, schedule: Q04DX003 (ip), vehicle: other).

As to `Cc1cccc(Nc2c3ccccc3nc3ccccc23)c1`, the T/C (endpoint: mean survival time, dose: 100.0 mg/kg/injection, schedule: Q01DX001 (ip), vehicle: saline with Tween-80) was 100 % of control.

On to `Cc1ccc(S(=O)(=O)N/N=C(\C(=O)O)c2ccccc2)cc1`, for which the T/C was 95 % of control (endpoint: mean survival time, dose: 12.5 mg/kg/injection, schedule: Q01DX009 (ip), vehicle: Klucel (hydroxypropylcellulose) (HPC)); 96 % of control (endpoint: mean survival time, dose: 25.0 mg/kg/injection, schedule: Q01DX009 (ip), vehicle: Klucel (hydroxypropylcellulose) (HPC)); 96 % of control (endpoint: mean survival time, dose: 50.0 mg/kg/injection, schedule: Q01DX009 (ip), vehicle: Klucel (hydroxypropylcellulose) (HPC)); 95 % of control (endpoint: mean survival time, dose: 100.0 mg/kg/injection, schedule: Q01DX009 (ip), vehicle: Klucel (hydroxypropylcellulose) (HPC)); 93 % of control (endpoint: mean survival time, dose: 200.0 mg/kg/injection, schedule: Q01DX009 (ip), vehicle: Klucel (hydroxypropylcellulose) (HPC)).

In the case of `C/C(=N/O)c1ccc(C)cc1`, the T/C reads like this: under setting [6], 94 % of control; under setting [3], 105 % of control; under setting [7], 91 % of control; under setting [4], 107 % of control; under setting [8], 93 % of control; under setting [5], 102 % of control.

In the case of `OC(C/C=C/c1ccccc1)(c1ccccc1)c1ccccc1`, the T/C is 93 % of control under setting [6], 101 % of control under setting [7] and 96 % of control under setting [8].

As to `N#Cc1[nH]nc2ncnc(N)c12`, the T/C reads like this: (endpoint: mean survival time, dose: 6.25 mg/kg/injection, schedule: Q01DX009 (ip), vehicle: saline with Tween-80) 100 % of control; (endpoint: mean survival time, dose: 12.5 mg/kg/injection, schedule: Q01DX009 (ip), vehicle: saline with Tween-80) 100 % of control; (endpoint: mean survival time, dose: 25.0 mg/kg/injection, schedule: Q01DX009 (ip), vehicle: saline with Tween-80) 93 % of control; (endpoint: mean survival time, dose: 50.0 mg/kg/injection, schedule: Q01DX009 (ip), vehicle: saline with Tween-80) 91 % of control and 98 % of control.

On to `Fc1c(F)c(F)[c]([Sn]([c]2ccccc2)([c]2ccccc2)[c]2ccccc2)c(F)c1F`, for which the T/C runs as follows: (endpoint: mean survival time, dose: 12.5 mg/kg/injection, schedule: Q04DX003 (ip), vehicle: saline with Tween-80) 88 % of control; (endpoint: mean survival time, dose: 25.0 mg/kg/injection, schedule: Q04DX003 (ip), vehicle: saline with Tween-80) 88 % of control.

In the case of `COC(OC)C1C2C3C=CC(C4C(=O)OC(=O)C34)C12` (stereo unspecified), the T/C was 98 % of control under setting [6]; 97 % of control under setting [3]; 93 % of control under setting [7]; 110 % of control under setting [4]; 95 % of control under setting [8]; 103 % of control under setting [5].

For `CC1(C)OC2C(CO)OC(NC3=C(C#N)CCCC3)C2O1` (stereo unspecified), the T/C runs as follows: (endpoint: mean survival time, dose: 12.5 mg/kg/injection, schedule: Q01DX005 (ip), vehicle: other) 103 % of control; (endpoint: mean survival time, dose: 25.0 mg/kg/injection, schedule: Q01DX005 (ip), vehicle: other) 105 % of control; (endpoint: mean survival time, dose: 50.0 mg/kg/injection, schedule: Q01DX005 (ip), vehicle: other) 103 % of control; (endpoint: mean survival time, dose: 100.0 mg/kg/injection, schedule: Q01DX005 (ip), vehicle: other) 97 % of control; (endpoint: mean survival time, dose: 200.0 mg/kg/injection, schedule: Q01DX005 (ip), vehicle: other) 103 % of control.

Regarding `CC(C)(C)/C=N/Nc1ccc([N+](=O)[O-])cc1[N+](=O)[O-]`, the T/C (endpoint: mean survival time, dose: 100.0 mg/kg/injection, schedule: Q04DX003 (ip), vehicle: acetone) is 97 % of control; the T/C (endpoint: mean survival time, dose: 200.0 mg/kg/injection, schedule: Q04DX003 (ip), vehicle: acetone) was 101 % of control; the T/C (endpoint: mean survival time, dose: 400.0 mg/kg/injection, schedule: Q04DX003 (ip), vehicle: acetone) is 97 % of control.

On to `Cc1ccc(NC(=S)NCCO)cc1C`, for which, under setting [6], the T/C is 114 % of control.

In the case of `CC1CCC2(C)CCC3(C)C4=CCC5C(C)(C)C(O)CCC5(C)C4CCC3(C)C2C1C` (stereo unspecified), the T/C is 89 % of control (endpoint: mean survival time, dose: 200.0 mg/kg/injection, schedule: Q04DX003 (ip), vehicle: saline) and 96 % of control (endpoint: mean survival time, dose: 400.0 mg/kg/injection, schedule: Q04DX003 (ip), vehicle: saline).

For `CN1C(=O)CC(c2ccc(NC(=O)N(CCCl)N=O)cc2)C1=O` (stereo unspecified), the T/C was 155 % of control and 160 % of control (endpoint: mean survival time, dose: 12.5 mg/kg/injection, schedule: Q01DX001 (ip), vehicle: distilled water + Tween-80); 183 % of control and 196 % of control (endpoint: mean survival time, dose: 25.0 mg/kg/injection, schedule: Q01DX001 (ip), vehicle: distilled water + Tween-80); 95 % of control (endpoint: mean survival time, dose: 50.0 mg/kg/injection, schedule: Q01DX001 (ip), vehicle: distilled water + Tween-80).

For the molecule `COc1ccc2nc3c(Cl)cccc3c(Cl)c2c1`, the T/C is 98 % of control (endpoint: mean survival time, dose: 50.0 mg/kg/injection, schedule: Q04DX003 (ip), vehicle: saline with Tween-80); 97 % of control under setting [3]; 87 % of control (endpoint: mean survival time, dose: 200.0 mg/kg/injection, schedule: Q01DX001 (ip), vehicle: saline with Tween-80); 101 % of control under setting [4].

With `Cc1ccc(-c2cc(C(=O)O)c3cc(F)ccc3n2)cc1`, the T/C is, setting by setting: under setting [3], 101 % of control; under setting [4], 95 % of control; under setting [5], 100 % of control.

Turning to `S`, the T/C is 95 % of control under setting [9], 101 % of control under setting [10] and 93 % of control under setting [11].

For `O=c1ccc2nc3cc(Cl)ccc3sc-2c1`, the T/C is, setting by setting: under setting [9], 94 % of control; under setting [10], 94 % of control; under setting [11], 94 % of control.

In the case of `CC(C)COP(=O)(OCC(C)C)OCC(C)C`, the T/C reads like this: under setting [3], 100 % of control; under setting [4], 92 % of control.

Turning to `CCCC1CCC(=C2C(=O)CCC2=O)O1` (stereo unspecified), the T/C by setting is: (endpoint: median survival time, dose: 25.0 mg/kg/injection, schedule: Q01DX009 (ip), vehicle: saline with Tween-80) 98 % of control; (endpoint: median survival time, dose: 50.0 mg/kg/injection, schedule: Q01DX009 (ip), vehicle: saline with Tween-80) 100 % of control; (endpoint: median survival time, dose: 100.0 mg/kg/injection, schedule: Q01DX009 (ip), vehicle: saline with Tween-80) 100 % of control; (endpoint: median survival time, dose: 200.0 mg/kg/injection, schedule: Q01DX009 (ip), vehicle: saline with Tween-80) 102 % of control.

For the molecule `Oc1ccc(/C=N/NC(=S)Nc2cccnc2)nc1`, the T/C runs as follows: under setting [1], 87 % of control; (endpoint: mean survival time, dose: 200.0 mg/kg/injection, schedule: Q04DX002 (ip), vehicle: saline with Tween-80) 87 % of control; under setting [2], 91 % of control.

Take `COc1cc2c(cc1OC)NC(=O)CC(=O)N2`: the T/C under setting [4] is 91 % of control and the T/C under setting [5] is 98 % of control.

In the case of `CCOC(=O)c1[nH]c(C)c(C(=O)OCC)c1C`, the T/C is 103 % of control under setting [9], 103 % of control under setting [10] and 95 % of control under setting [11].

Consider `O=C1CC2OCCC3=CN4CCC56c7ccccc7N1C5C2C3CC46` (stereo unspecified), for which the T/C was 116 % of control (endpoint: mean survival time, dose: 1.25 mg/kg/injection, schedule: Q01DX001 (ip), vehicle: other) and 108 % of control (endpoint: mean survival time, dose: 2.5 mg/kg/injection, schedule: Q01DX001 (ip), vehicle: other).

These data come from PubChem BioAssay AID256 (DTP/NCI, 2004).
